Data on 14 compounds can be found in patent publication US8993566B2, “Quinoline compound composing 1,2,4-triazine-dione and use thereof” (Wuhan Shengyun Biopharma Co., Ltd., priority 2012, dated 2015).

Assay [1] has as its system human nonsmall-cell lung cancer cell H460. Nature of the assay: In vitro anti-tumor cell activity (MTT), H460. The assay is classed as cell-based. The conditions noted are these: H460 cells, MTT, 72 h, Bliss method; for IC50: Homo sapiens, NCI-H460, read-out: H460 IC50. As to the method: (§1) The digested cell solution was poured into a centrifuge tube, to which a culture media was added to stop the digestion. The centrifuge tube was centrifuged at 800 r/min for 10 min, the supernatant was removed gently and then 5 mL of the culture media was added. The cells were pipetted and mixed homogeneously. 10 μL cell suspension was taken into a cell counting plate for counting, wherein the cell concentration was adjusted to 10^4 cells/well. To each well of a 96-well plate, except for A1 well as blank control, was added 100 μL of the cell suspension. The 96-well plate was placed in an incubator and cultivated for 24 h. […] The 96-well plate was placed in an incubator and cultivated for 72 h. (3) The culture media containing the compounds in the 96-well plate was removed, and the cells were washed with phosphate buffered solution (PBS) twice. To each well was added 100 μL MTT (tetrazole) (0.5 mg/mL), after placing the plate in an incubator to incubate for 4 h, the MTT solution was removed and 100 μL dimethyl sulfoxide was added. The reaction product of survival cells with MTT, i.e. formazan, was dissolved completely by oscillation on a magnetic oscillator, and then placed into a microplate reader to measure the results, and the IC50 values of compounds could be deduced by Bliss method.

Assay [2] deals with T1, c-Met kinase (His-tagged recombinant human Met (amino acids 974-end)) (Homo sapiens, UniProt P08581).
T1 construct: His-tagged recombinant human Met (amino acids 974-end); His
T1 sequence (P08581 956-1390): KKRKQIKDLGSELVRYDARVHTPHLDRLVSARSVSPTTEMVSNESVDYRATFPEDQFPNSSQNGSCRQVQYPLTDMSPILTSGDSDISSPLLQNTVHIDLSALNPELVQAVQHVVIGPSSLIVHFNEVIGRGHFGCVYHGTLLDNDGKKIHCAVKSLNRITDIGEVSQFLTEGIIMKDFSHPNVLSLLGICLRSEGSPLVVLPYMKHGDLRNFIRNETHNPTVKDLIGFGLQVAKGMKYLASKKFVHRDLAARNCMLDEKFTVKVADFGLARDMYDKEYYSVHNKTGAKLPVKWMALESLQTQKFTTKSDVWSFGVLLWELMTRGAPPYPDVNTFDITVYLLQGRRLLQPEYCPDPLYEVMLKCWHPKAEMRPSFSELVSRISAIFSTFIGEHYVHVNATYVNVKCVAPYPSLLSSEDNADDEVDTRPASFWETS
Nature of the assay: c-Met Enzyme Activity Inhibition Assay (ELISA). In kind it is biochemical. To be noted: 50 pM c-Met, 5 μM ATP, room temperature 20 min; for IC50: read-out: IC50 for inhibiting c-Met kinase (converted). As to the method: c-Met Enzyme Activity Inhibition Assay
The assay for the determination of c-Met kinase activity is based on an enzyme linked immunosorbant assay (ELISA). A compound of Formula I, 50 pM c-Met (His-tagged recombinant human Met (amino acids 974-end), expressed by baculovirus), and 5 μM ATP in an assay buffer (25 mM MOPS, pH 7.4, 5 mM MgCl2, […], 100 μM sodium orthovanadate, 0.01% Triton X-100, 1 mM DTT, final DMSO concentration 1% (v/v)) were incubated on a plate coated with 0.25 mg/mL POT at room temperature for 20 min. The reaction mixture was removed by washing and the phosphorylated polymer substrate was detected with 0.2 μg/mL phosphotyrosine specific monoclonal antibody (PY20) conjugated to horseradish peroxidase (HRP). After the addition of 1M phosphoric acid to stop the development, the chromogenic substrate (TMB) color was quantitated by spectrophotometry at 450 nm.

The test system of assay [3] is human gastric cancer cell MKN-45. Nature of the assay: In vitro anti-tumor cell activity (MTT), MKN-45. The assay is classed as cell-based. To be noted: MKN-45 cells, MTT, 72 h, Bliss method; for IC50: Homo sapiens, read-out: MKN-45 IC50. As to the method:
as §1

Assay [4] deals with human colon cancer cell HT-29. Nature of the assay: In vitro anti-tumor cell activity (MTT), HT-29. The assay is classed as cell-based. To be noted: HT-29 cells, MTT, 72 h, Bliss method; for IC50: Homo sapiens, read-out: HT-29 IC50. As to the method:
as §1

In assay [5] the test system is human hepatoma carcinoma cell line SMMC-7721. Nature of the assay: In vitro anti-tumor cell activity (MTT), SMMC-7721. To be noted: SMMC-7721 cells, MTT, 72 h, Bliss method; for IC50: Homo sapiens, read-out: SMMC-7721 IC50. In kind it is cell-based. As to the method:
as §1

Converted amounts (≈) assume the structure as drawn.

Consider `COc1cc2c(Oc3ccc(NC(=O)c4nn(-c5ccc(F)c(F)c5)c(=O)n(C)c4=O)cc3F)ccnc2cc1OCCCN1CCCCC1` [Example 17, N-[3-fluoro-4-[6-methoxy-7-[3-(1-piperidinyl)propyloxy]quinolin-4-oxy]phenyl]-2-(3,4-difluorophenyl)-4-methyl-3,5-dioxo-2,3,4,5-tetrahydro-1,2,4-triazine-6-carboxamide], for which the half-inhibitory concentration (IC50) (usually the concentration that gives 50% inhibition) in assay [1] was 0.22 µg/mL (≈ 0.319 µM); in assay [2], 420 nM; in assay [3], 0.027 µg/mL (≈ 0.0391 µM); in assay [4], 0.3 µg/mL (≈ 0.434 µM); in assay [5], 0.19 µg/mL (≈ 0.275 µM).
Turning to `COc1cc2c(Oc3ccc(NC(=O)c4nn(-c5ccc(F)c(F)c5)c(=O)n(C)c4=O)cc3F)ccnc2cc1OCCCN1CCOCC1` [Example 18, N-[3-fluoro-4-[6-methoxy-7-[3-(4-morpholinyl)propyloxy]quinolin-9-oxy]phenyl]-2-(3,4-difluorophenyl)-4-methyl-3,5-dioxo-2,3,4,5-tetrahydro-1,2,4-triazine-6-carboxamide], the “H460 IC50” value in assay [1] turned out to be 0.57 µg/mL. The “IC50 for inhibiting c-Met kinase” value in assay [2] amounted to 0.32 µg/mL. For the same compound, in assay [3], the “MKN-45 IC50” value came to 0.0008 µg/mL. Moreover, the “HT-29 IC50” value in assay [4] came to 0.3 µg/mL. In addition, in assay [5], the “SMMC-7721 IC50” value was determined as 0.45 µg/mL.
Consider `COc1cc2c(Oc3ccc(NC(=O)c4nn(-c5ccc(F)c(F)c5)c(=O)n(C)c4=O)cc3F)ccnc2cc1OCCCN1CCC(C)CC1` [Example 19, N-[3-fluoro-4-[6-methoxy-7-[3-(4-methylpiperidin-1-yl)propyloxy]quinolin-4-oxy]phenyl]-2-(3,4-difluorophenyl)-4-methyl-3,5-dioxo-2,3,4,5-tetrahydro-1,2,4-triazine-6-carboxamide], for which the IC50 is 1.1 µg/mL (≈ 1.56 µM) in assay [1]; 766 nM in assay [2]; 0.23 µg/mL (≈ 0.326 µM) in assay [3]; 0.24 µg/mL (≈ 0.341 µM) in assay [4]; 0.74 µg/mL (≈ 1.05 µM) in assay [5].
In the case of `COc1cc2c(Oc3ccc(NC(=O)c4nn(-c5ccc(F)c(F)c5)c(=O)n(C)c4=O)cc3F)ccnc2cc1OCCCN1CCN(C)CC1` [Example 20, N-[3-fluoro-4-[6-methoxy-7-[3-(4-methyl-1-piperazinyl)propyloxy]quinolin-4-oxy]phenyl]-2-(3,4-difluorophenyl)-4-methyl-3,5-dioxo-2,3,4,5-tetrahydro-1,2,4-triazine-6-carboxamide], the concentration for half-maximal inhibition (IC50) was 0.28 µg/mL (≈ 0.397 µM) in assay [1]; 241 nM in assay [2]; 0.009 µg/mL (≈ 0.0128 µM) in assay [3]; 0.14 µg/mL (≈ 0.198 µM) in assay [4]; 0.11 µg/mL (≈ 0.156 µM) in assay [5].
For `COc1cc2c(Oc3ccc(NC(=O)c4nn(-c5ccc(Cl)cc5)c(=O)n(C)c4=O)cc3F)ccnc2cc1OCCCN1CCCCC1` [Example 26, N-[3-fluoro-4-[6-methoxy-7-[3-(1-piperidinyl)propyloxy]quinolin-4-oxy]phenyl]-2-(4-chlorophenyl)-4-methyl-3,5-dioxa-2,3,4,5-tetrahydro-1,2,4-triazine-6-carboxamide;], in assay [1], the “H460 IC50” value is 0.15 µg/mL. The “IC50 for inhibiting c-Met kinase” value in assay [2] was 0.71 µg/mL. In addition, the “MKN-45 IC50” value in assay [3] came to 0.011 µg/mL. Also, the “HT-29 IC50” value in assay [4] is 0.08 µg/mL. In addition, in assay [5], the “SMMC-7721 IC50” value is 0.33 µg/mL.
Consider `COc1cc2c(Oc3ccc(NC(=O)c4nn(-c5ccc(Cl)cc5)c(=O)n(C)c4=O)cc3F)ccnc2cc1OCCCN1CCOCC1` [Example 27, N-[3-fluoro-4-[6-methoxy-7-[3-(4-morpholinyl)propyloxy]quinolin-4-oxy]phenyl]-2-(4-chlorophenyl)-4-methyl-3,5-dioxo-2,3,4,5-tetrahydro-1,2,4-triazine-6-carboxamide], for which the IC50 in assay [1] was 0.23 µg/mL (≈ 0.333 µM); in assay [2] it was 59.3 nM; in assay [3], 0.0053 µg/mL (≈ 0.00767 µM); in assay [4], 0.18 µg/mL (≈ 0.26 µM); in assay [5], 0.58 µg/mL (≈ 0.839 µM).
On to `C=CCn1c(=O)c(C(=O)Nc2ccc(Oc3ccnc4cc(OCCCN5CCCC5)c(OC)cc34)c(F)c2)nn(-c2ccc(Cl)cc2)c1=O` [Example 38], for which the “H460 IC50” value in assay [1] worked out at 1.4 µg/mL. Besides, in assay [2], the “IC50 for inhibiting c-Met kinase” value was determined as 2.76 µg/mL. In assay [3], the “MKN-45 IC50” value stood at 0.62 µg/mL. Besides, the “HT-29 IC50” value in assay [4] is 0.54 µg/mL. Besides, the “SMMC-7721 IC50” value in assay [5] was found to be 1.8 µg/mL.
Taken in the same sequence, the figures for `C=CCn1c(=O)c(C(=O)Nc2ccc(Oc3ccnc4cc(OCCCN5CCOCC5)c(OC)cc34)c(F)c2)nn(-c2ccc(Br)cc2)c1=O` [Example 39] were 1.4 µg/mL, 1.8 µg/mL, 0.19 µg/mL, 0.83 µg/mL and 2.1 µg/mL.
Taken in the same sequence, the figures for “N-[3-fluoro-4-[6-methoxy-7-(3-(4-methyl-1-piperazinyl)propyloxy)quinolin-4-oxy]phenyl]-2-(3-trifluoromethylphenyl)-4-methyl-3,5-dicarbamoyl-2,3,4,5-tetrahydro-1,2,4-triazine-6-carboxamide [Example 25]” were 0.52 µg/mL, 1.01 µg/mL, 0.014 µg/mL, 0.05 µg/mL and 0.07 µg/mL.
For the compound “N-[3-fluoro-4-[6-methoxy-7-[3-(1-piperidinyl)propyloxy]quinolin-4-oxy]phenyl]-2-(3-trifluoromethylphenyl)-4-methyl-3,5-dicarbonyl-2,3,4,5-tetrahydro-1,2,4-triazine-6-carboxamide [Example 22]”, the “H460 IC50” value in assay [1] was found to be 0.26 µg/mL. For the same compound, the “IC50 for inhibiting c-Met kinase” value in assay [2] turned out to be 0.57 µg/mL. For the same compound, in assay [3], the “MKN-45 IC50” value was 0.006 µg/mL. For the same compound, the “HT-29 IC50” value in assay [4] worked out at 0.12 µg/mL. In assay [5], the “SMMC-7721 IC50” value is 0.18 µg/mL.
Turning to “N-[3-fluoro-4-[6-methoxy-7-[3-(1-piperidinyl)propyloxy]quinolin-4-oxy]phenyl]-2-phenyl-4-methyl-3,5-dioxo-2,3,4,5-tetrahydro-1,2,4-triazine-6-carboxamide [Example 2]”, the “H460 IC50” value in assay [1] worked out at 0.072 µg/mL. Besides, in assay [2], the “IC50 for inhibiting c-Met kinase” value came to 0.12 µg/mL. The “MKN-45 IC50” value in assay [3] is 0.032 µg/mL. Further, in assay [4], the “HT-29 IC50” value came to 0.18 µg/mL. Besides, the “SMMC-7721 IC50” value in assay [5] worked out at 0.20 µg/mL.
The like results for “N-[3-fluoro-4-[6-methoxy-7-[3-(1-piperidinyl)propyloxy]quinolin]-4-oxy]phenyl]-2-(2,4-difluorophenyl)-4-benzyl-3,5-dicarbonyl-2,3,4,5-tetrahydro-1,2,4-triazine-6-carboxamide [Example 44]” were, in that order, 0.99 µg/mL, 6.1 µg/mL, 0.13 µg/mL, 0.57 µg/mL and 2.5 µg/mL.
With “N-[3-fluoro-4-[6-methoxy-7-[3-(1-piperidinyl)propyloxy]quinolin]-4-oxy]phenyl]-2-(2-fluorophenyl)-4-allyl-3,5-dicarbonyl-2,3,4,5-tetrahydro-1,2,4-triazine-6-carboxamide [Example 40]”, in assay [1], the “H460 IC50” value is 1.0 µg/mL. Also, the “IC50 for inhibiting c-Met kinase” value in assay [2] was found to be 5.1 µg/mL. In assay [3], the “MKN-45 IC50” value is 0.05 µg/mL. For the same compound, the “HT-29 IC50” value in assay [4] amounted to 0.26 µg/mL. Moreover, in assay [5], the “SMMC-7721 IC50” value came out at 3.1 µg/mL.
Taken in the same sequence, the figures for “N-[3-fluoro-4-[6-methoxy-7-[3-(1-pyrrolidyl)propyloxy]quinolin-4-oxy]phenyl]-2-(3-trifluoromethylphenyl)-4-methyl-3,5-dicarbonyl-2,3,4,5-tetrahydro-1,2,4-triazine-6-carboxamide [Example 21]” were 0.24 µg/mL, 0.13 µg/mL, 0.0002 µg/mL, 0.13 µg/mL and 0.32 µg/mL.
